Test results published in the supplement of paper PMC10307832.

Columns and labels:
Test in all cases: relative viability (nuclei count vs DMSO), 5 days (fraction); higher = more cells survive
[1] = compound: CC1=C(C(=O)N2C=CSC2=N1)CCN3CCC(=C(C4=CC=CC=C4)C5=CC=C(C=C5)F)CC3 + Cc1nc(Nc2ncc(C(=O)Nc3c(C)cccc3Cl)s2)cc(N2CCN(CCO)CC2)n1 [Dasatinib] (partner 0.075 µM)
Summary of the method: (§1)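 Each reported value is a median over duplicate plates. It expresses relative viability: treated-well nuclei count divided by vehicle-well nuclei count. Lung cancer cell lines in 1536-well plates were dosed by pin tool a day after seeding, alone with one drug or with a fixed anchor-drug dose plus five library-drug doses (not always all listed) in √10 steps, and nuclei were counted after 5 days.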

[2] = compound: CC1=C(C(=O)N2C=CSC2=N1)CCN3CCC(=C(C4=CC=CC=C4)C5=CC=C(C=C5)F)CC3 + Nc1nc2[nH]cc(CCc3ccc(C(=O)N[C@@H](CCC(=O)O)C(=O)O)cc3)c2c(=O)[nH]1 [Pemetrexed] (partner 0.2 µM)
Summary of the method: as §1

[3] = compound: CC1=C(C(=O)N2C=CSC2=N1)CCN3CCC(=C(C4=CC=CC=C4)C5=CC=C(C=C5)F)CC3 + CC(=O)c1c(C)c2cnc(Nc3ccc(N4CCNCC4)cn3)nc2n(C2CCCC2)c1=O [Palbociclib] (partner 0.5 µM)
Summary of the method: as §1

[4] = compound: CC1=C(C(=O)N2C=CSC2=N1)CCN3CCC(=C(C4=CC=CC=C4)C5=CC=C(C=C5)F)CC3 + O=C(CCCCCCC(=O)Nc1ccccc1)NO [Vorinostat] (partner 1 µM)
Summary of the method: as §1

Cell Line | relative viability ([1]; first compound 0.08 µM) | relative viability ([1]; first compound 0.253 µM) | relative viability ([1]; first compound 0.8 µM) | relative viability ([1]; first compound 2.53 µM) | relative viability ([1]; first compound 8 µM) | relative viability ([2]; first compound 0.08 µM) | relative viability ([2]; first compound 0.8 µM) | relative viability ([2]; first compound 2.53 µM) | relative viability ([2]; first compound 8 µM) | relative viability ([3]; first compound 0.08 µM) | relative viability ([3]; first compound 0.8 µM) | relative viability ([3]; first compound 2.53 µM) | relative viability ([3]; first compound 8 µM) | relative viability ([4]; first compound 0.08 µM) | relative viability ([4]; first compound 0.8 µM) | relative viability ([4]; first compound 2.53 µM) | relative viability ([4]; first compound 8 µM) | relative viability ([2]; first compound 0.253 µM) | relative viability ([3]; first compound 0.253 µM) | relative viability ([4]; first compound 0.253 µM)
PC-3 [JPC-3] | 0.901 | 0.702 | 1.01 | 1.14 | 0.844 | 1.16 | 0.995 | 1.01 | 1.02 | 0.58 | 0.576 | 0.596 | 0.579 | 0.746 | 0.748 | 0.879 | 0.666 |  |  | 
PC-14 | 0.228 | 0.284 | 0.21 | 0.237 | 0.282 | 0.153 | 0.133 | 0.153 | 0.137 | 0.358 | 0.455 | 0.622 | 0.328 | 0.677 | 0.866 | 0.762 | 0.623 | 0.138 | 0.574 | 0.901
RERF-LC-KJ | 0.706 | 0.892 | 0.879 | 0.688 | 0.492 | 0.502 | 0.439 | 0.486 | 0.481 | 1.18 | 0.97 | 0.991 | 0.637 | 0.617 | 0.793 | 0.716 | 0.48 | 0.476 | 1.04 | 0.658
SK-LU-1 | 0.196 | 0.172 | 0.19 | 0.18 | 0.178 | 1.12 | 0.995 | 1.13 | 0.597 | 0.378 | 0.406 | 0.416 | 0.36 | 0.773 | 0.75 | 0.783 | 0.713 | 0.942 | 0.375 | 0.708
SK-MES-1 | 0.383 | 0.273 | 0.27 | 0.334 | 0.369 | 1.11 | 0.97 | 1.02 | 0.829 | 0.299 | 0.294 | 0.336 | 0.305 | 1.1 | 1.29 | 1.17 | 0.698 | 1.05 | 0.288 | 1.18
SW 900 | 0.399 | 0.634 | 0.634 | 0.584 | 0.41 | 0.436 | 0.484 | 0.5 | 0.281 | 0.524 | 0.543 | 0.58 | 0.526 | 0.438 | 0.478 | 0.603 | 0.241 | 0.532 | 0.514 | 0.751
SW 1573 |  | 0.586 | 0.537 | 0.512 | 0.225 | 0.998 | 0.786 | 0.933 | 0.578 | 0.346 | 0.407 | 0.382 | 0.286 | 0.808 | 1.01 | 0.795 | 0.423 | 0.854 | 0.359 | 0.697
UMC-11 | 0.526 | 0.422 | 0.525 | 0.824 | 0.357 | 0.914 | 0.8 | 0.945 | 0.632 | 0.309 | 0.272 | 0.321 | 0.328 | 0.38 | 0.354 | 0.333 | 0.405 |  | 0.321 | 
